Data from ChEMBL document CHEMBL1154198, “Chemical genetics of Plasmodium falciparum” (Nature, 2010).

Legend:
[1] = system: Plasmodium falciparum; assay: ST_JUDE: Plasmodium falciparum K1 EC50 (uM) as measured by SYBR green dye; assay type: functional, organism-based
[2] = system: Plasmodium falciparum; assay: ST_JUDE: Plasmodium falciparum 3D7 EC50 (uM) as measured by SYBR green dye; assay type: functional, organism-based

Structure (SMILES) | EC50 [1] [nM] | EC50 [2] [nM]
O=C(Nc1cc(Cl)cc(Cl)c1)Nc1ccc(Cl)c(Cl)c1 | 496 | 772
Cc1ccnc(NC(c2cccc(Cl)c2Cl)c2ccc3cccnc3c2O)c1 (centres undefined) | 1670 | 1500
COc1ccc(OC)c(NC(=O)CSc2nc(-c3ccccc3Cl)ns2)c1 | 1420 | 1250
CCOc1cc(C2CC(=O)NC3=C2C(=O)CC(c2ccc(OC)c(OC)c2)C3)ccc1O (centres undefined) | 656 | 2320
COc1ccc(OC)c(NC(=O)C2c3ccccc3C(=O)N(CC(C)C)C2c2cccs2)c1 (centres undefined) | 612 | 503
CCOC(=O)c1nnn(-c2nonc2N)c1-c1ccc(Cl)cc1 | 3470 | > 15000
COc1ccc2c(ccc(/C=C3\C=CC=CN3C)[n+]2C)c1 | 842 | 1170
O=C(Cc1ccc(Br)cc1)OCC(=O)c1ccc(F)cc1 | > 15000 | > 15000
CO/C(O)=C1\C(C)=NC2=C(C(=O)CC(c3ccccc3OC)C2)C1c1ccc(OC)c(OC)c1 (centres undefined) | > 15000 | > 15000
CCOc1ccc(NC(=O)c2sc3nc4n(c(=O)c3c2C)CCC4)cc1 | > 15000 | > 15000
COc1ccc(S(=O)(=O)NC2=C/C(=N\c3ccc(NC(C)=O)cc3)C(=O)c3ccccc32)cc1 | 2870 | 5750
COc1ccc(CCNC(=S)Nc2ccccc2Cl)cc1OC | 1360 | 1290
Cc1ccc2nc(C)cc(Nc3cccc(C(F)(F)F)c3)c2c1 | 6010 | 879
CCOC(=O)C1=C(Nc2ccc(Cl)cc2)S/C(=C\c2cccc(OC)c2O)C1=O | 4000 | > 15000
CCN(CC)c1ccc(/C=C/C2=[N+](C)c3ccc(C(=O)OC)cc3C2(C)C)cc1 | > 15000 | 3080
CCCCc1ccc(OCC(=O)N/N=C/c2cccc(OC)c2)cc1 | > 15000 | > 15000
O=C(Nc1cccc(C(F)(F)F)c1)c1cc(Cl)ccc1O | 1200 | 973
Cc1ccc(NC(=O)CSc2nncc(O)n2)cc1 | 924 | 4880
COc1ccc(N2CCN(C(CNC(=O)c3ccc(C(C)(C)C)cc3)c3ccco3)CC2)cc1 (centres undefined) | 1510 | > 15000
Cc1ccccc1NC(=O)C1c2ccccc2C(=O)N(C2CCCC2)C1c1cccs1 (centres undefined) | 4340 | 2820
COc1ccc(C(=O)C2CCCN(Cc3ccc(OCCO)cc3)C2)cc1OC (centres undefined) | > 15000 | > 15000

Structure (SMILES) | EC50 [1] [nM] | EC50 [2] [nM]
CCCNC(=O)C1CN1Cc1ccc(OC)cc1 (centres undefined) | 6920 | 6810
CC(=O)N(C1=C(N(C)C)C(=O)c2ccccc2C1=O)c1ccc(I)cc1 | 45.8 | 31.5
Cc1ccc(OCCCOc2cccc3ccc(C)nc23)c([N+](=O)[O-])c1 | > 15000 | > 15000
COC(=O)c1ccccc1NC(=O)c1ccc(Cn2cc(Cl)cn2)cc1 | > 15000 | > 15000
O=C1C(NC2CCCCC2)=C(N2CCCCC2)C(=O)c2ccccc21 | 24.7 | 19.1
CN1CCN(c2nc(Nc3ccc(F)cc3)c3cnn(-c4ccccc4)c3n2)CC1 | 4270 | 1490
COc1ccc(Cl)cc1N(C)C(=O)c1cc2c(s1)-c1ccccc1S(=O)(=O)C2 | 1780 | 1350
COc1ccc(-n2c(=O)c3c4c(sc3n3c(SCc5ccccc5)nnc23)COC(C)(C)C4)cc1 | > 15000 | 11300
Oc1c(CN2CCN(c3cccc(C(F)(F)F)c3)CC2)cc(COCc2ccccc2)c2cccnc12 | 1450 | 2330
CCOC(=O)c1ccc(NC(=O)CSc2nn3c(=O)c(C)nnc3s2)cc1 | > 15000 | > 15000
Cc1sc(NC(=O)c2cc(-c3ccccn3)nc3ccc(Cl)cc23)c(C(N)=O)c1C | > 15000 | > 15000
CCc1cccc(NC(=O)c2cc3c(-c4ccc(OC)c(OC)c4)nn(C)c3s2)c1 | > 15000 | > 15000
CCn1c2ccccc2c2cc(CN3CCN(Cc4cc(OC)ccc4O)CC3)ccc21 | 1220 | 2840
CC(C)N1CCN(Cc2ccc(C#CC(C)(C)O)cc2)CC1CCO (centres undefined) | > 15000 | > 15000
CC(C)OCc1cc(CN2CCN(c3cccc(Cl)c3)CC2)c(O)c2ncccc12 | 808 | 941
COc1ccc(Nc2cc(C)nc(Nc3ccc(NS(=O)(=O)c4ccc(F)cc4)cc3)n2)cc1 | > 15000 | 1550
COC(=O)c1c(S(=O)(=O)N2CCCC2)sc2c1CCN(Cc1c[nH]nc1-c1ccccc1)C2 | > 15000 | > 15000
O=C1C(Nc2cccc(C(F)(F)F)c2)=C(N2CCCCC2)C(=O)c2ccccc21 | 1490 | 852
CCOc1ccc(NC(=O)C2c3cc(OC)c(OC)cc3C(=O)N(C)C2c2ccc(OC)cc2)cc1 (centres undefined) | 1070 | > 15000
CSc1cccc(NC(=O)C2c3ccccc3C(=O)N(C3CCCC3)C2c2cccs2)c1 (centres undefined) | 948 | 578
CCCO/C(O)=C1\C(C)=NC2=C(C(=O)CC(c3ccccc3OC)C2)C1c1ccc(OC)c(OC)c1 (centres undefined) | 3800 | 3850
